# According to ChEMBL document CHEMBL1138237, “Synthesis and anti-inflammatory/antioxidant activities of some new ring substituted 3-phenyl-1-(1,4-di-N-oxide quinoxalin-2-yl)-2-propen-1-one derivatives and of their 4,5-dihydro-(1H)-pyrazole analogues” (Bioorg Med Chem Lett, 2007):
# How the values were obtained:
# [1] = test system: Radical scavenging activity; assay: Antioxidant activity assessed as DPPH radical scavenging activity at 0.1 mM after 60 mins; format: functional
# [2] = test system: Radical scavenging activity; assay: Antioxidant activity assessed as DPPH radical scavenging activity at 0.05 mM after 20 mins; format: functional
# [3] = molecular target: T1, Seed linoleate 13S-lipoxygenase-1 (Glycine max) (UniProt P08170); assay: Inhibition of soybean lipoxygenase at 100 uM
# T1 sequence (whole entry): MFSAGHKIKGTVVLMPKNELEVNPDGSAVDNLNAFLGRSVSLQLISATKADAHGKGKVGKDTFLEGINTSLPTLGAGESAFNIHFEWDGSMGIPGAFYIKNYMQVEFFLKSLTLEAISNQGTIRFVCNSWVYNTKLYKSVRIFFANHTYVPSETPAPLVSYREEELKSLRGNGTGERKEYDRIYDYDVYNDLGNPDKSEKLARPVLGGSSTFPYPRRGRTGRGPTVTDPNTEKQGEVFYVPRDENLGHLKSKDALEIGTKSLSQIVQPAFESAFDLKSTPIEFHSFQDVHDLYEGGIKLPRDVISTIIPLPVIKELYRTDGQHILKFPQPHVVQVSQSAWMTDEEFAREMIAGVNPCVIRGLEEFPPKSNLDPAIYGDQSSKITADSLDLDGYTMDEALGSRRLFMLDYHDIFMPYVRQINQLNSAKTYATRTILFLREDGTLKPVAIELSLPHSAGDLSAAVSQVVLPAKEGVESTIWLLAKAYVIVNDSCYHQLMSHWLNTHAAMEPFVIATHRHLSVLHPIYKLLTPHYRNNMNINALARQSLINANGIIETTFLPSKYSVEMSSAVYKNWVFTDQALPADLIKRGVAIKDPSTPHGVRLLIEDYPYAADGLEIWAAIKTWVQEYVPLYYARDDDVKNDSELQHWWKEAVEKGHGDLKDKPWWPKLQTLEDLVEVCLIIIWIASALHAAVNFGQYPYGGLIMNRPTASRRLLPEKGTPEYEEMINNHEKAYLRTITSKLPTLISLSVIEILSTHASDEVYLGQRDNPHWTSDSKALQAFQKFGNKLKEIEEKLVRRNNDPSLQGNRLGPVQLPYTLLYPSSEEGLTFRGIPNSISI
# Rattus norvegicus = assay: Antiinflammatory activity against carrageenan-induced paw edema rat model at 0.01 mmol/ml/kg; format: functional
# [4] = test system: Radical scavenging activity; assay: Antioxidant activity assessed as DPPH radical scavenging activity at 0.1 mM after 20 mins; format: functional
# [5] = test system: Radical scavenging activity; assay: Antioxidant activity assessed as DPPH radical scavenging activity at 0.05 mM after 60 mins; format: functional
# [6] = Antioxidant activity assessed as hydroxyl radical scavenging activity at 0.1 mM; format: functional
# [7] = molecular target: T2, Seed linoleate 13S-lipoxygenase-1 (Glycine max, UniProt P08170); assay: Inhibition of soybean lipoxygenase
# T2 sequence (P08170 whole entry): T1 sequence (whole entry)
# [8] = Antioxidant activity assessed as superoxide radical scavenging activity at 0.1 mM by nitroblue tetrazolium method; format: functional
smiles,measurement,setting,value
COc1ccc2c(c1)[n+]([O-])c(C(=O)/C=C/c1ccc(O)c(OC)c1)c(C)[n+]2[O-],Activity,[1],70.4%
same,Activity,[2],45%
same,inhibition,[3],55.7%
same,Inhibition,Rattus norvegicus,21.3%
same,Activity,[4],51%
same,Activity,[5],59%
same,Activity,[6],97.3%
COc1cc(/C=C/C(=O)c2c(C)[n+]([O-])c3ccccc3[n+]2[O-])ccc1O,Activity,[1],56%
same,IC50,[7],< 1 µM
same,Activity,[8],12.5%
same,Inhibition,Rattus norvegicus,56.1%
same,Activity,[4],39.4%
same,Activity,[6],100%
COc1cc(C2CC(c3c(C)[n+]([O-])c4ccc(F)cc4[n+]3[O-])=NN2)cc(OC)c1OC (stereo not given),Activity,[1],68%
same,Activity,[2],58%
same,IC50,[7],70 µM
same,Inhibition,Rattus norvegicus,23.4%
same,Activity,[4],51.6%
same,Activity,[5],67%
same,Activity,[6],99.3%
COc1cc(/C=C/C(=O)c2c(C)[n+]([O-])c3ccccc3[n+]2[O-])cc(OC)c1OC,IC50,[7],42 µM
same,Activity,[8],100%
same,Inhibition,Rattus norvegicus,55.4%
same,Activity,[6],99%
O=C(O)/C=C/c1ccc(O)c(O)c1,Activity,[8],45%
CC(Cc1ccc(O)c(O)c1)C(C)Cc1ccc(O)c(O)c1 (stereo not given),Activity,[1],82.6%
same,Activity,[2],68%
same,Activity,[4],81%
same,Activity,[5],72%
COc1cc(C2CC(c3c(C)[n+]([O-])c4ccccc4[n+]3[O-])=NN2)cc(OC)c1OC (stereo not given),Activity,[1],38%
same,Activity,[2],42%
same,inhibition,[3],67.3%
same,Inhibition,Rattus norvegicus,24.3%
same,Activity,[4],31%
same,Activity,[5],46%
same,Activity,[6],93.4%
Cc1c(C)c2c(c(C)c1O)CCC(C)(C(=O)O)O2 (stereo not given),Activity,[6],73.4%
Cc1c(C(=O)/C=C/c2ccc3c(c2)OCO3)[n+]([O-])c2ccccc2[n+]1[O-],Activity,[1],3%
same,IC50,[7],31 µM
same,Inhibition,Rattus norvegicus,4.5%
same,Activity,[4],1%
same,Activity,[6],96%
COc1cc(/C=C/C(=O)c2c(C)[n+]([O-])c3ccc(F)cc3[n+]2[O-])ccc1O,Activity,[1],52%
same,Activity,[2],36.4%
same,IC50,[7],85 µM
same,Inhibition,Rattus norvegicus,36.3%
same,Activity,[4],45.3%
same,Activity,[5],38.4%
same,Activity,[6],99.7%
COc1ccc2c(c1)c(CC(=O)O)c(C)n2C(=O)c1ccc(Cl)cc1 [INDOMETHACIN],Inhibition,Rattus norvegicus,47%
